According to patent US20090311217A1, “3-SUBSTITUTED-1H-INDOLE COMPOUNDS, THEIR USE AS MTOR KINASE AND PI3 KINASE INHIBITORS, AND THEIR SYNTHESES” (priority 2008, published 2009):
Read-outs that look alike come from different tables or passages of the source.

Legend:
Format in all cases: biochemical
human TOR = biological target: T1, human TOR (Homo sapiens, UniProt P42345); assay: mTOR enzyme assay (DELFIA, His6-S6K substrate)
T1 construct: FLAG

PI3K-beta = PI3K-beta (Homo sapiens, UniProt P42338); assay: PI3K-beta fluorescence polarization assay; details: read-out: PI3Kβ Avg. IC50
Sequence of PI3K-beta (P42338 whole entry, species assumed): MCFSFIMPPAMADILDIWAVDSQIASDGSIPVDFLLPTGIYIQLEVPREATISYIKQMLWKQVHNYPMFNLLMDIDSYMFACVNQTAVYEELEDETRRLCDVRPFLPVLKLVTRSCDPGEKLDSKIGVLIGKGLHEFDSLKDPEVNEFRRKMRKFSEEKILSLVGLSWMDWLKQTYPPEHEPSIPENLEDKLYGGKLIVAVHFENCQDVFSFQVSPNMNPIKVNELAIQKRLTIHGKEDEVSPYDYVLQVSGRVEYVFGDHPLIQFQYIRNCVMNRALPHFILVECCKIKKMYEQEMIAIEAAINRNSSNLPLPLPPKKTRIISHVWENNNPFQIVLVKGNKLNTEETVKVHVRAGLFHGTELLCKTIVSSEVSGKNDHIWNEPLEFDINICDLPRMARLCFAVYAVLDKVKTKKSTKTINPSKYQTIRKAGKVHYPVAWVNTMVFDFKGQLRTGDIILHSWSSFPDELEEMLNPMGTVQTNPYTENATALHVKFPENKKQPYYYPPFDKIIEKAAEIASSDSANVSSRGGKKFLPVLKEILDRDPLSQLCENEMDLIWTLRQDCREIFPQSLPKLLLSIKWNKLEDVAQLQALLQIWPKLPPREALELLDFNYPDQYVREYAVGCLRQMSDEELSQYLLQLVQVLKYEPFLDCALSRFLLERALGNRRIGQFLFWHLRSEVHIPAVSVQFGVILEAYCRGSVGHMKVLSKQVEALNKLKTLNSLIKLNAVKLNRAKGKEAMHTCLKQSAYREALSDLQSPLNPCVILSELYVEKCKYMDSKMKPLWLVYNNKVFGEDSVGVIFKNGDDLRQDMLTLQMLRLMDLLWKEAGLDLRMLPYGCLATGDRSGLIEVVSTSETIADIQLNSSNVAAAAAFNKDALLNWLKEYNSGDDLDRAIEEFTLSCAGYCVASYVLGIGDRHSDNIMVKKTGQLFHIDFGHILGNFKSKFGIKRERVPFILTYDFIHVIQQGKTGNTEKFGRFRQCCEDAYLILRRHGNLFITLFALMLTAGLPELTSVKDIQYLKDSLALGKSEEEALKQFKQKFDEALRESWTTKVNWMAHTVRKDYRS
Sequence of PI3K-beta (P27986 whole entry partner, species assumed): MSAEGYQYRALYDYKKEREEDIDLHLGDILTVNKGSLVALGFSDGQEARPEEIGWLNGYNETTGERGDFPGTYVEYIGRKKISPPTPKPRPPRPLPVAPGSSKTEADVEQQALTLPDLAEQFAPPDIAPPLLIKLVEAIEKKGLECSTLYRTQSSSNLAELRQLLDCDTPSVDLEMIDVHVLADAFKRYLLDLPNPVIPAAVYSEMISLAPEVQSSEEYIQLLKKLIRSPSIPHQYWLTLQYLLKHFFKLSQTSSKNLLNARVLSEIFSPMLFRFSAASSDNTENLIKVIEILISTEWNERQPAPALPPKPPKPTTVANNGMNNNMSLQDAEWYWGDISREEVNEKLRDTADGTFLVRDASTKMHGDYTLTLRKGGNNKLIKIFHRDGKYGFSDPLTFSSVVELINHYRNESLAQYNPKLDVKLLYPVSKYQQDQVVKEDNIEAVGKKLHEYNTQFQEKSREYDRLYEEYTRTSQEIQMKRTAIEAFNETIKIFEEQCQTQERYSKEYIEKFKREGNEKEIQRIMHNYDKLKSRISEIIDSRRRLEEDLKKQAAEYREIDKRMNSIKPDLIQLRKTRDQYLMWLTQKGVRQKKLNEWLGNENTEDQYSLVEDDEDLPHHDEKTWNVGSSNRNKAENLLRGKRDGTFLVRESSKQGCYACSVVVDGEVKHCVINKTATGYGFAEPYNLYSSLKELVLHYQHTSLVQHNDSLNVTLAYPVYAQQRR
Experimental: PI3K-Alpha, PI3K-Beta, PI3K-Gamma, and PI3K-delta Fluorescence Polarization Assay Protocols
PI3-Kinase reactions were performed in 5 mM HEPES, pH 7, 2.5 mM MgCl2, and 25 μM ATP, with diC8-PI(4,5)P2 (Echelon, Salt Lake City Utah) as substrate. Nunc 384-well black polypropylene fluorescent plates were used for PI3K assays. Reactions were quenched by the addition of EDTA to a final concentration of 10 mM. Final reaction volumes were 10 μl. For evaluation of PI3K inhibitors, 5 ng of enzyme (PI3K-alpha, beta, gamma, or delta) and 2.5 μM of substrate was used per […] reaction volume, and inhibitor concentrations ranged from 100 μM to 20 μM; the final level of DMSO in reactions never exceeded 2%. Reactions were allowed to proceed for one hour at 25° C. After 1 hour, GST-tagged GRP1 (general receptor for phosphoinositides) PH domain fusion protein was added to a final concentration of 100 nM, and BODIPY-TMRI(1,3,4,5)P4 (Echelon) was also added to a final concentration of 5 nM. Final sample volumes were 25 μl with a final DMSO concentration of 0.8%. Assay Plates were read on Perkin-Elmer Envision plate readers with appropriate filters for Tamra [BODIPY-TMRI(1,3,4,5)P4]. Data obtained were used to calculate enzymatic activity and enzyme inhibition by inhibitor compounds.

PI3K-alpha = PI3K-alpha (Homo sapiens, UniProt P42336); assay: PI3K-alpha fluorescence polarization assay
Sequence of PI3K-alpha (P42336 whole entry, species assumed): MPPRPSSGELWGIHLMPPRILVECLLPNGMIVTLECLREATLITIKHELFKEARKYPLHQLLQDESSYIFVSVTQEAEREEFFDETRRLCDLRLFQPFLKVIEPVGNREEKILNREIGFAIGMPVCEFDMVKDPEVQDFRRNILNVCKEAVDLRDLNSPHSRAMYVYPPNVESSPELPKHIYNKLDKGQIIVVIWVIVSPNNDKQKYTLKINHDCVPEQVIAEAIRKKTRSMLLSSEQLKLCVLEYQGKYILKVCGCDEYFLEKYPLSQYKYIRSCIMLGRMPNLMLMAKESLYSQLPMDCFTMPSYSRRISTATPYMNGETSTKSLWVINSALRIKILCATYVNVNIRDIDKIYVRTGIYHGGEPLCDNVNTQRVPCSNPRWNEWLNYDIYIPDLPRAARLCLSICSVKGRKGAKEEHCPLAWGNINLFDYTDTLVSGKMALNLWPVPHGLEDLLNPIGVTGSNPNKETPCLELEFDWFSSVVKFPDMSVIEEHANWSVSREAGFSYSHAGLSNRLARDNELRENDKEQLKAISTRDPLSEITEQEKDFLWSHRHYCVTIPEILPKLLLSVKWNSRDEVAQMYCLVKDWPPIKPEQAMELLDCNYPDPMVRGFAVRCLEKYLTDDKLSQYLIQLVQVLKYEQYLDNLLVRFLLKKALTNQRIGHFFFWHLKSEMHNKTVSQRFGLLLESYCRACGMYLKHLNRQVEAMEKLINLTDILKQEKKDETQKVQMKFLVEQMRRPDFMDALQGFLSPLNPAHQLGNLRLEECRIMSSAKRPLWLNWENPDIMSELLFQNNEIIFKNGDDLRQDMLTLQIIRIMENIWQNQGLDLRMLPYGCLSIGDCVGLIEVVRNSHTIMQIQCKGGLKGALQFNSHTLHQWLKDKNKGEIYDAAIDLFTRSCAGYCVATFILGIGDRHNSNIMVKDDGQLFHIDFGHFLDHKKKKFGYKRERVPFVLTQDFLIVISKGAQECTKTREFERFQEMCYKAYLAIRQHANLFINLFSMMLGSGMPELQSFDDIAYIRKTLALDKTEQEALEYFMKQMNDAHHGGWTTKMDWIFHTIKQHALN
Sequence of PI3K-alpha (P27986 whole entry partner, species assumed): as the sequence (P27986 whole entry partner, species assumed) above

PI3K-gamma = PI3K-gamma (Homo sapiens, UniProt P48736); assay: PI3K-gamma fluorescence polarization assay; details: PI3Kγ Avg. IC50
Sequence of PI3K-gamma (P48736 whole entry, species assumed, the tested form may be a part): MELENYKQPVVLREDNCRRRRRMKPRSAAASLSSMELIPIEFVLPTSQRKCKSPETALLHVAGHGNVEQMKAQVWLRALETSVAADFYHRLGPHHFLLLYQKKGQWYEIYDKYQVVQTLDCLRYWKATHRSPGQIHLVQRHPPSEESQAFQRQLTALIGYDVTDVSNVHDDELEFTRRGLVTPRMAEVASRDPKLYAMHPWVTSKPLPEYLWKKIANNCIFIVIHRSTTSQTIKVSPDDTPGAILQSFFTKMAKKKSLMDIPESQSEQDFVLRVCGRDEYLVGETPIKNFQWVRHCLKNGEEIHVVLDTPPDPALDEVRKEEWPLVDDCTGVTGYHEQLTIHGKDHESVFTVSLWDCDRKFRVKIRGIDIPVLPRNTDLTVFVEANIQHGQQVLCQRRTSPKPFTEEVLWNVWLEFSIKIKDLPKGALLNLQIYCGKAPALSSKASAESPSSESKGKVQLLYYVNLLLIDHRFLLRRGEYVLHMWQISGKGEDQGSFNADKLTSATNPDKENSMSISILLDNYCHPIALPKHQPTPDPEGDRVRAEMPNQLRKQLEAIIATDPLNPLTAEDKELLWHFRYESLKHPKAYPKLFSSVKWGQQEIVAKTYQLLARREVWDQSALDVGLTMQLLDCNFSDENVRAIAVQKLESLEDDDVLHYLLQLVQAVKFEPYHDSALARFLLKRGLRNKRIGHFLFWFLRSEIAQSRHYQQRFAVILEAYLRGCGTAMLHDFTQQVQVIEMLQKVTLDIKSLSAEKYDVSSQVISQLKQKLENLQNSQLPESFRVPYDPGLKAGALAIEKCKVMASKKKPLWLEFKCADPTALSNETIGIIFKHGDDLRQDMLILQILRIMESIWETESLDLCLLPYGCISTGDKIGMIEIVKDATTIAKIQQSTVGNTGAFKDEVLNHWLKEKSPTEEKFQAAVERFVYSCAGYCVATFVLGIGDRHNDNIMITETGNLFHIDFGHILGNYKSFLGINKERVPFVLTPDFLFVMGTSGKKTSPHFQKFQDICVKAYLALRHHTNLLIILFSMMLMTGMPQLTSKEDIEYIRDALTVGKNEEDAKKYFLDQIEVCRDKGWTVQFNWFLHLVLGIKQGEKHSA
In short: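 Reactions in 5 mM HEPES pH 7, 2.5 mM MgCl2, 25 μM ATP with 2.5 μM diC8-PI(4,5)P2 and 5 ng enzyme, 1 h at 25° C, then EDTA quench. Product detected by FP using GST-GRP1 PH domain (100 nM) and BODIPY-TMR-IP4 tracer (5 nM); final DMSO 0.8%.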

PI3K-delta = PI3K-delta (Homo sapiens, UniProt O00329); assay: PI3K-delta fluorescence polarization assay
Sequence of PI3K-delta (O00329 whole entry, species assumed): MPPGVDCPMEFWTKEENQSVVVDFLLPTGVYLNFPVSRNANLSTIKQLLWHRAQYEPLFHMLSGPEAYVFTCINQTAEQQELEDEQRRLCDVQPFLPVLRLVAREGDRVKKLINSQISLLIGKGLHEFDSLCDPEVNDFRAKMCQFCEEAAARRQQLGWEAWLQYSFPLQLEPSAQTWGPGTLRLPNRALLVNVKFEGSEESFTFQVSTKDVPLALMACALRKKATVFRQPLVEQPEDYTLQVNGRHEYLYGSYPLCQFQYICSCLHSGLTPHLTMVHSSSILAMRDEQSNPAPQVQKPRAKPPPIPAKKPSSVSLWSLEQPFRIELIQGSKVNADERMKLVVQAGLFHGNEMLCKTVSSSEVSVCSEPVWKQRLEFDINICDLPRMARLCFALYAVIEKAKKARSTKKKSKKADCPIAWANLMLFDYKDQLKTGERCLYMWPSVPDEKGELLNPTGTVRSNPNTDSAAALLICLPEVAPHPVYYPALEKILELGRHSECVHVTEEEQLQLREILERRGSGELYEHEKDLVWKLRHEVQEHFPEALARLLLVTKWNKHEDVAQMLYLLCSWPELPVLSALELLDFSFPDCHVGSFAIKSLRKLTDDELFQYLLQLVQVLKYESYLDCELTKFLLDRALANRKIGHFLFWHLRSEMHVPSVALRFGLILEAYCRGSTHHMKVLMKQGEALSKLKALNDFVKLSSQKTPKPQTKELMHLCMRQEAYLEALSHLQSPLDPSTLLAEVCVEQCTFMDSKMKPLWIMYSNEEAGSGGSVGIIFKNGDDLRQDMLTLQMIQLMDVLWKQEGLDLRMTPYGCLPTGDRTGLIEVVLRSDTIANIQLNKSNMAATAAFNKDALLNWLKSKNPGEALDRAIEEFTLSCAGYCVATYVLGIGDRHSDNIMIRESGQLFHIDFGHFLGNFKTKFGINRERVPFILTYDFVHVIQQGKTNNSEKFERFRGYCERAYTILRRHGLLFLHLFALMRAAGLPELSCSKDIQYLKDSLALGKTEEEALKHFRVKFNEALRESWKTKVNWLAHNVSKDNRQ
Sequence of PI3K-delta (P27986 whole entry partner, species assumed): as the sequence (P27986 whole entry partner, species assumed) above

[1] = read-out: mTOR Kinase Avg. IC50

SMILES | IC50 (human TOR; [1]) | IC50 (PI3K-beta) | IC50 (PI3K-alpha; read-out: PI3Kα Avg. IC50) | IC50 (PI3K-gamma) | IC50 (PI3K-delta; read-out: PI3Kδ Avg. IC50) | IC50 (human TOR; mTOR Kinase Avg. IC50) | IC50 (PI3K-alpha; PI3Kα Avg. IC50) | IC50 (PI3K-delta)
COc1ccc2c(c1)c(C=C1Oc3cc(O)cc(O)c3C1=O)cn2CCN1CCN(CCO)CC1 [Example 111, 4,6-dihydroxy-2-[(1-{2-[4-(2-hydroxyethyl)piperazin-1-yl]ethyl}-5-methoxy-1H-indol-3-yl)methylene]-1-benzofuran-3(2H)-one] | 215 nM | 169 nM | 36.3 nM | 976 nM | 21.5 nM |  |  | 
COc1ccc2c(c1)c(C=C1Oc3cc(O)cc(O)c3C1=O)cn2CCCN1CCOCC1 [Example 112, 4,6-dihydroxy-2-{[5-methoxy-1-(3-morpholin-4-ylpropyl)-1H-indol-3-yl]methylene}-1-benzofuran-3(2H)-one] |  | 181 nM |  | 646 nM | 6 nM | 430 nM | 42 nM | 
COc1ccc2c(c1)c(C=C1Oc3cc(O)cc(O)c3C1=O)cn2CCCN1CCN(CCO)CC1 [Example 113, 4,6-dihydroxy-2-[(1-{3-[4-(2-hydroxyethyl)piperazin-1-yl]propyl}-5-methoxy-1H-indol-3-yl)methylene]-1-benzofuran-3(2H)-one] | 1650 nM | 243 nM |  | 1360 nM | 7 nM |  | 37 nM | 
COc1ccc2c(c1)c(C=C1Oc3cc(O)cc(O)c3C1=O)cn2CCCN(C)C [Example 114, 2-({1-[3-(dimethylamino)propyl]-5-methoxy-1H-indol-3-yl}methylene)-4,6-dihydroxy-1-benzofuran-3(2H)-one] | 2120 nM | 221 nM |  | 2420 nM | 11.5 nM |  | 40 nM | 
COc1ccc2c(c1)c(C=C1Oc3cc(O)cc(O)c3C1=O)cn2CCCCN(C)C [Example 116, 2-({1-[4-(dimethylamino)butyl]-5-methoxy-1H-indol-3-yl}methylene)-4,6-dihydroxy-1-benzofuran-3(2H)-one] | 1420 nM | 119 nM | 37 nM | 1340 nM | 5 nM |  |  | 
COc1cc2c(C=C3Oc4cc(O)cc(O)c4C3=O)c(C)[nH]c2cc1C [Example 184, 4,6-dihydroxy-2-[(5-methoxy-2,6-dimethyl-1H-indol-3-yl)methylene]-1-benzofuran-3(2H)-one] | 190 nM | 155 nM | 102 nM | 544 nM | 193 nM |  |  | 
COc1cc2c(C=C3Oc4cc(O)cc(O)c4C3=O)c(C)n(C)c2cc1C [Example 185, 4,6-dihydroxy-2-[(5-methoxy-1,2,6-trimethyl-1H-indol-3-yl)methylene]-1-benzofuran-3(2H)-one] | 130 nM | 96.5 nM | 32.3 nM | 403 nM | 38 nM |  |  | 
COc1ccc2c(c1)c(/C=C1\Oc3cc(O)cc(O)c3C1=O)c(C1CC1)n2CCN1CCN(C)CC1 [Example 302, (2Z)-2-({2-Cyclopropyl-5-methoxy-1-[2-(4-methylpiperazin-1-yl)ethyl]-1H-indol-3-yl}methylene)-4,6-dihydroxy-1-benzofuran-3(2H)-one] | 300 nM | 14 nM | 17 nM | 764 nM | < 2.5 nM |  |  | 
COc1ccc2c(c1)c(/C=C1\Oc3cc(O)cc(O)c3C1=O)c(C)n2CCCN(C)C [Example 305, (2Z)-2-({1-[3-(Dimethylamino)propyl]-5-methoxy-2-methyl-1H-indol-3-yl}methylene)-4,6-dihydroxy-1-benzofuran-3(2H)-one] | 205 nM | 28.5 nM |  | 228 nM |  |  | 5 nM | 5 nM
COc1ccc2[nH]c(-c3ccccc3)c(/C=C3\Oc4cc(O)ccc4C3=O)c2c1 [Example 310, (2Z)-6-Hydroxy-2-[(5-methoxy-2-phenyl-1H-indol-3-yl)methylene]-1-benzofuran-3(2H)-one] | 92 nM | 11.5 nM | < 2.1 nM | 13.5 nM | 0.9 nM |  |  | 
COc1ccc2c(c1)c(/C=C1\Oc3cc(O)cc(O)c3C1=O)cn2CC(=O)N(C)C [Example 318, 2-{3-[(Z)-(4,6-Dihydroxy-3-oxo-1-benzofuran-2(3H)-ylidene)methyl]-5-methoxy-1H-indol-1-yl}-N,N-dimethylacetamide] | 250 nM | 739 nM | 83.3 nM | 686 nM | 27 nM |  |  | 

Continued by falling IC50 (human TOR; [1]), values first:

IC50 (human TOR; [1]) | IC50 (PI3K-beta) | IC50 (PI3K-alpha; read-out: PI3Kα Avg. IC50) | IC50 (PI3K-gamma) | IC50 (PI3K-delta; read-out: PI3Kδ Avg. IC50) | SMILES | IC50 (human TOR; mTOR Kinase Avg. IC50) | IC50 (PI3K-alpha; PI3Kα Avg. IC50) | IC50 (PI3K-delta)
3700 nM | 72.5 nM | 18.5 nM | 1820 nM | 2.5 nM | COc1ccc2c(c1)c(/C=C1\Oc3cc(O)ccc3C1=O)c(C)n2CCCN(C)C [Example 307, (2Z)-2-({1-[3-(Dimethylamino)propyl]-5-methoxy-2-methyl-1H-indol-3-yl}methylene)-6-hydroxy-1-benzofuran-3(2H)-one] |  |  | 
1700 nM | 46 nM | 28 nM | 180 nM | 59 nM | COC(=O)c1ccc2[nH]cc(C=C3Oc4cc(O)cc(O)c4C3=O)c2c1 [Example 166, methyl 3-[(4,6-dihydroxy-3-oxo-1-benzofuran-2(3H)-ylidene)methyl]-1H-indole-5-carboxylate] |  |  | 
980 nM | 136 nM | 39.3 nM | 1190 nM | 8.5 nM | COc1ccc2c(c1)c(C=C1Oc3cc(O)cc(O)c3C1=O)cn2CCCCN1CCOCC1 [Example 115, 4,6-dihydroxy-2-{[5-methoxy-1-(4-morpholin-4-ylbutyl)-1H-indol-3-yl]methylene}-1-benzofuran-3(2H)-one] |  |  | 
270 nM | 23.5 nM | 25.5 nM | 1030 nM | 5.5 nM | COc1ccc2c(c1)c(/C=C1\Oc3cc(O)cc(O)c3C1=O)cn2CCN1CCN(C)CC1 [Example 308, (2Z)-4,6-Dihydroxy-2-({5-methoxy-1-[2-(4-methylpiperazin-1-yl)ethyl]-1H-indol-3-yl}methylene)-1-benzofuran-3(2H)-one] |  |  | 
265 nM | 108 nM | 38.3 nM | 117 nM | 3.5 nM | COc1ccc2c(c1)c(/C=C1\Oc3cc(O)cc(O)c3C1=O)cn2CCN1CCC(O)CC1 [Example 319, (2Z)-4,6-Dihydroxy-2-({1-[2-(4-hydroxypiperidin-1-yl)ethyl]-5-methoxy-1H-indol-3-yl}methylene)-1-benzofuran-3(2H)-one] |  |  | 
130 nM | 20.5 nM | 8.5 nM | 144 nM | 3 nM | COc1ccc2c(c1)c(/C=C1\Oc3cc(O)cc(O)c3C1=O)c(C(=O)N(C)C)n2CCN1CCC(O)C1 (stereo not drawn) [Example 306, 3-[(Z)-(4,6-Dihydroxy-3-oxo-1-benzofuran-2(3H)-ylidene)methyl]-1-[2-(3-hydroxypyrrolidin-1-yl)ethyl]-5-methoxy-N,N-dimethyl-1H-indole-2-carboxamide] |  |  | 
77.5 nM | 64 nM | 17 nM | 92.5 nM | 8.5 nM | COc1ccc2c(c1)c(/C=C1\Oc3cc(O)cc(O)c3C1=O)cn2CCO [Example 317, (2Z)-4,6-Dihydroxy-2-{[1-(2-hydroxyethyl)-5-methoxy-1H-indol-3-yl]methylene}-1-benzofuran-3(2H)-one] |  |  | 
62 nM | 128 nM | 54 nM | 65 nM | 17 nM | COc1ccc2[nH]c(-c3ccccc3)c(/C=C3\Oc4cccc(O)c4C3=O)c2c1 [Example 304, (2Z)-4-Hydroxy-2-[(5-methoxy-2-phenyl-1H-indol-3-yl)methylene]-1-benzofuran-3(2H)-one] |  |  | 
14.5 nM | 25 nM | < 2.7 nM | 278 nM | 1.5 nM | COc1ccc2c(c1)c(/C=C1\Oc3cc(O)cc(O)c3C1=O)c(C(=O)N(C)C)n2CCN1CCN(C)CC1 [Example 316, 3-[(Z)-(4,6-Dihydroxy-3-oxo-1-benzofuran-2(3H)-ylidene)methyl]-5-methoxy-N,N-dimethyl-1-[2-(4-methylpiperazin-1-yl)ethyl]-1H-indole-2-carboxamide] |  |  | 
1.93 nM | 3.5 nM | 2.2 nM | 70 nM | < 2 nM | COc1ccc2c(c1)c(/C=C1\Oc3cc(O)ccc3C1=O)c(C)n2CCN1CCN(C)CC1 [Example 303, (2Z)-6-Hydroxy-2-({5-methoxy-2-methyl-1-[2-(4-methylpiperazin-1-yl)ethyl]-1H-indol-3-yl}methylene)-1-benzofuran-3(2H)-one] |  |  | 
